We go through 8 compounds from publication PMC6452907 (Polyhedron, 2019).

For data set [1], the system named is L. donovani amastigotes in mouse macrophages. The note with it: cited from earlier work.
The test system of data set [2] is L. donovani intracellular amastigotes in THP1 cells. The format is cell-based, Leishmania donovani.
Data set [3] is described as follows: Cytotoxicity against THP1 cell cultures. The format is cell-based, human. The conditions noted are these: human, THP1 cell cultures.
Data set [4] deals with L. donovani promastigotes. The data set is described as follows: In vitro antileishmanial assay against L. donovani promastigotes. Type of data set: cell-based. The conditions noted are these: Leishmania donovani, 72 h; for pIC50: read-out: L. donavani Promastigotes IC50; for IC90: read-out: L. donavani Promastigotes IC90.
Data set [5] deals with L. donovani axenic amastigotes. The data set is described as follows: In vitro antileishmanial assay against L. donovani axenic amastigotes. The format is cell-based. The note with it: Leishmania donovani, 72 h; for pIC50: read-out: L. donavani Amastigotes IC50; for IC90: read-out: L. donavani Amastigotes IC90.
A further data set relates to THP1 cells. The data set is described as follows: Cytotoxicity against THP1 cell cultures. The format is cell-based, human. The note with it: THP1 cells; for pIC50: read-out: THP1 cells (Cytotoxicity) IC50; for IC90: read-out: THP1 cells (Cytotoxicity) IC90.
[6] abbreviates: read-out: L. donavani Amastigotes + THP1 IC50, intracellular amastigotes in differentiated THP1 macrophages.
Where [7] appears, read: read-out: L. donavani Amastigotes + THP1 IC90, intracellular amastigotes in differentiated THP1 macrophages.

pIC50: −log10 of the molar value. Like-named read-outs stand apart in the source and are kept apart here.

`Cl.Cl.Cl.N=C(N)c1cccc(/C=N/N=C(\N)N/N=C/c2cccc(C(=N)N)c2)c1` [CGP40215A]: the “concentration inhibiting growth of L. donovani amastigotes in mouse macrophages” value in data set [1] (mouse macrophages) is listed as “up to 90 μM”.

The pIC50 is the IC50 on a negative log10 scale, so that one unit is a factor of ten. As usually defined, the IC90 is the point of the concentration-response curve where the effect stands at 90%. With `C[C@@H]1[C@H](O)[C@@H](C)/C=C/C=C/C=C/C=C/C=C/C=C/C=C/[C@H](O[C@@H]2O[C@H](C)[C@@H](O)[C@H](N)[C@@H]2O)C[C@@H]2O[C@](O)(C[C@@H](O)C[C@@H](O)[C@H](O)CC[C@@H](O)C[C@@H](O)CC(=O)O[C@H]1C)C[C@H](O)[C@H]2C(=O)O` [Amphotericine B], the pIC50 in data set [2] (Leishmania donovani, THP-1, read-out: L. donavani Amastigotes + THP1 IC50) was 6.32; in data set [3], under 5.00; in data set [4] it was 6.87; in data set [5] it was 6.10. The IC90 in data set [2] (Leishmania donovani, THP-1, read-out: L. donavani Amastigotes + THP1 IC90) is 1.94 µM; in data set [3], over 10 µM; in data set [4] it was 0.262 µM; in data set [5] it was 0.959 µM.

Take `c1ccc(CN2CCN3CCN(CC2)CCN(Cc2ccccc2)CC3)cc1` [Bn2Bcyclen (L3)]: the pIC50 (in data set [2] (setting [6]); in the data set on THP1 cells) was under 4.60 in each case. Moreover, the IC90 (in data set [2] (setting [7]); in the data set on THP1 cells) was over 25 µM each time.

Turning to `N=C(N)c1ccc(OCCCCCOc2ccc(C(=N)N)cc2)cc1` [Pentamidine], the pIC50 in data set [3] was under 4.70; in data set [4] it was 5.53; in data set [5] it was 4.69. Further, the IC90 is over 25 µM in data set [3], 6.52 µM in data set [4] and over 25 µM in data set [5].

Regarding `c1ccc(CN2CCCNCCN(Cc3ccccc3)CCCNCC2)cc1` [Bn2Cyclam (L10), 1,8-dibenzylcyclam], the values for the pIC50 (in data set [2] (setting [6]); with THP1 cells) were 4.89 and under 4.60, respectively. Besides, the values for the IC90 (in data set [2] (setting [7]); in the data set on THP1 cells) were 13.2 µM and over 25 µM, respectively.

`c1ccc(CNCCCNCCCCCCCNCCCNCc2ccccc2)cc1` [MDL27695]: the “elimination of L. donovani amastigotes from mouse macrophages” value in data set [1] (at a 1 μM concentration) is 77–100%.

In the case of `CN1CCCN2CCN(CCCN(Cc3ccccc3)CC2)CC1` [Bn1Me1Bcyclam (L2)], the pIC50 (in data set [2] (setting [6]); in the data set with THP1 cells) was under 4.70 each time. The IC90 (in data set [2] (setting [7]); in the data set on THP1 cells) was over 20 µM each time.

For the compound `c1ccc(CN2CCN3CCCN(CC2)CCN(Cc2ccccc2)CC3)cc1` [Bn2PBCyclen (L4)], the pIC50 in data set [2] (setting [6]) is 4.74; with THP1 cells, under 4.60. Moreover, the IC90 (in data set [2] (setting [7]); with THP1 cells) was over 25 µM in each case.
